Data: paper PMC9234964, “Design, Synthesis, and Biological Evaluation of a Novel Series of 4-Guanidinobenzoate Derivatives as Enteropeptidase Inhibitors with Low Systemic Exposure for the Treatment of Obesity” (Journal of Medicinal Chemistry, 2022)
Like-named read-outs stand apart in the source and are kept apart here.

Tests used:
DIO mice = conditions: cited from earlier work
enteropeptidase = system: enteropeptidase; parameters: method as in PMID 33033171; conditions: cited from earlier work
human enteropeptidase [1] = biological target: T1, human enteropeptidase (Homo sapiens, UniProt P98073); assay: Human enteropeptidase enzyme assay; format: biochemical; conditions: for IC50: substrate and compound at room temperature, 95% confidence intervals in parentheses
T1 construct: purchased ITSI-Biosciences, LLC #REN-260
Description: Human recombinant enteropeptidase (#REN-260, ITSI-Biosciences, LLC) was diluted with an assay buffer (50 mM tricine (pH 8.0), 0.01(w/v)% Tween 20, 10 mM CaCl2) to prepare a 24 mU/mL enzyme solution. Subsequently, 5FAM–Abu–[…]CPQ2)–Lys–Lys–NH2 (purity: 97.2%, CPC Scientific, Inc.) was diluted with an assay buffer to prepare a 2.1 μM substrate solution. Compounds were dissolved in DMSO and then diluted in the assay buffer. The compound solution (5 μL/well) and the substrate solution (5 μL/well) were added to a 384-well black plate (#784076, Greiner Bio-One) and mixed. Then, the enzyme solution (5 μL/well) was added to the plate and mixed to start the reaction. The fluorescence intensity was measured at an excitation wavelength of 485 nm and a fluorescence wavelength of 535 nm using a fluorescence plate reader EnVision (PerkinElmer Inc.). Also, the same reaction as above was performed except that the test compound was not added (test compound non-supplemented group). In addition, the same reaction as above was performed except that neither the test compound nor the enzyme was added (control group).
(§1) Inhibition rate (%) = (1 – (fluorescence intensity of the test compound supplemented group – fluorescence intensity of the control group)/(fluorescence intensity of the test compound non-supplemented group – fluorescence intensity of the control group)) × 100.

rat enteropeptidase = rat enteropeptidase (Rattus norvegicus, UniProt A0ABK0LTS6); assay: Rat enteropeptidase enzyme assay; format: biochemical
Description: The rat enteropeptidase catalytic subunit (aa 818-1057, GenBank accession no. XM_017597944) was cloned into the BglII-NotI site of the pET32a vector (Millipore). The active rat enteropeptidase catalytic subunit was obtained as described previously.[36] The rat recombinant enteropeptidase was diluted with an assay buffer (50 mM Tricine (pH 8.0), 0.01(w/v)% Tween 20, 10 mM CaCl2) to prepare a 2.4 ng/mL enzyme solution. Subsequently, 5FAM–Abu–[…]CPQ2)–Lys–Lys–NH2 (purity: 97.2%, CPC Scientific, Inc.) was diluted with an assay buffer to prepare a 5.4 μM substrate solution. Compounds were dissolved in DMSO and then diluted in the assay buffer. The compound solution (5 μL/well) and the substrate solution (5 μL/well) were added to a 384-well black plate (#784076, Greiner Bio-One) and mixed. Then, the enzyme solution (5 μL/well) was added to the plate and mixed to start the reaction. The fluorescence intensity was measured at an excitation wavelength of 485 nm and a fluorescence wavelength of 535 nm using a fluorescence plate reader EnVision (PerkinElmer Inc.). […]
as §1

[2] = system: Human Multi-drug Resistance 1 (MDR-1) Expressing Cells; assay: Membrane permeability with MDR1-expressing cells (A to B); format: in vitro ADME; conditions: apical to basolateral, 10 μmol/L, 2 h
Description: The transcellular transport study was performed as reported previously.[40] In brief, the cells were grown in a HTS transwell 96 well permeable support (pore size 0.4 μm, 0.143 cm^2 surface area) with a polyethylene terephthalate membrane (Corning Life Sciences, Lowell, MA, USA) at a density of 1.125 × 10^5 cells/well. The cells were preincubated with M199 at 37 °C for 30 min. Subsequently, transcellular transport was initiated by the addition of M199 to apical compartments containing 10 μmol/L test compounds and terminated by the removal of each assay plate after 2 h. The aliquots in the opposite compartments were subjected to be measured for compound concentration by LC–MS/MS. Permeability was calculated using the permeated compound concentration.

[3] = Aqueous stability at pH 1.2/6.8; format: physicochemical; conditions: 24 h; for stability at pH 1.2 (% decomposed): pH 1.2, 37 °C; for stability at pH 6.8 (% decomposed): pH 6.8, 37 °C
Description: Sample solutions in pH 1.2/6.8 media (first/second fluids for the disintegration test in the Japanese Pharmacopoeia 17th edition, including 10% dimethyl sulfoxide if needed, 10 μg/mL) were prepared for the compounds and incubated at 37 °C. The sample solutions were measured initially and at 24 h using HPLC, and peak analysis was conducted. Residual contents (%) of the compounds in pH 1.2/6.8 media at 37 °C after 24 h of incubation of the initial solutions were calculated using the peak areas.

High-Fat-Diet-Fed Mice = assay: Increase in fecal protein output in high-fat-diet-fed mice; format: in vivo, mouse; conditions: for fecal protein output (fold of 2a): oral
Description: A high-fat diet (HFD)-fed mouse (D12079B diet, male, 14–21 weeks old) was used for the in vivo assay. For compound screening, mice were orally administered with either the test compound (10 mg/kg) or 0.5% methylcellulose (MC) as a vehicle control. For the assessment of efficacy by systemic exposure of the compound, mice were subcutaneously administered with compound 2a (10 mg/kg) or saline as a vehicle control and compared with those administered oral treatment (60 mg/kg). Doses were selected to achieve equivalent systemic exposure as the area under the curve over 24 h based on pharmacokinetic data of both oral and subcutaneous administration. Whole feces were collected overnight, and the fecal protein output was evaluated as described previously.[33]

Pharmacokinetics in rats = format: in vivo, rat
Description: […] After administration, blood samples were collected and centrifuged to obtain plasma specimens. The compound concentrations in the plasma were measured using LC–MS/MS.

DIO rats = assay: Anti-obesity effects in male DIO rats (repeated dosing, 4 weeks); format: in vivo, rat; conditions: oral, 6b 1, 3 and 10 mg/kg; for body weight change / food intake: (S)-5b 10 mg/kg; for fecal protein output: day 28, (S)-5b 10 mg/kg
Description: Six-week-old male DIO F344/Jcl rats were obtained from CLEA Japan (Tokyo, Japan) and fed with a HFD D12451 (45 kcal % fat, 20 kcal % protein, and 35 kcal % carbohydrate; Research Diets, Inc.). The study involved six groups of rats (n = 6): vehicle (0.5% MC), 6b (1, 3, and 10 mg/kg), (S)-5b (SCO-792) (10 mg/kg), and sibutramine (1 mg/kg). […] were orally administered with either the vehicle or compounds starting at 36 weeks of age for 4 weeks. The body weight was monitored every 1–4 days for 4 weeks. The change in body weight is presented as a percentage of the initial body weight. Feces were collected on day 28 and evaluated for pharmacodynamic markers.

human enteropeptidase [4] = biological target: T1, human enteropeptidase; assay: Dissociation assay (recovery of active enzyme after rapid dilution); format: biochemical; conditions: rapid dilution after 2 h preincubation of compound and enzyme
From the text: Although not all reaction constants for 1c could be identified, the in vitro IC50 value could be used as an indicator of the combination of k1, k–1, and k2. In this case, the IC50 value of a compound is derived from its affinity for enteropeptidase (k1 and k–1) and its reactivity against enteropeptidase (k2). […] As the affinity of a compound for enteropeptidase is expected to largely contribute to the IC50 value based on initial velocities (IC50(initial)) relative to the IC50 value based on the steady state (IC50(app)), we performed chemical modifications based on IC50(initial). […] Because T1/2 can be an indicator of k3, we focused on compounds with low IC50(initial) values and long T1/2 values.
For dissociation assay, compounds were dissolved in DMSO and then diluted in assay buffer (50 mM Tricine pH 8.0, 0.01(w/v)% Tween20, 10 mM CaCl2). 10 μL of compound solution was added in 96-well plate (corning), and then, 10 μL of 100 mU/mL human recombinant enteropeptidase (ITSI-Biosciences) solution was added into the plate and incubated at room temperature for 2 h. […] After incubation, 2 μL of the compound-enzyme mixture was transferred to a 96-well black plate (Corning) and 200 μL of substrate solution (3 μM 5FAM–Abu–[…]CPQ2)–Lys–Lys–NH2 (CPC Scientific)) was added into the well. By rapid dilution, the inhibitor concentration went to 10-fold below the IC50 from 10-fold above the IC50. The fluorescence was measured each 2 min at excitation wavelength 485 nm and emission wavelength 535 nm by EnVision (Perkin Elmer). The progress curves were fitted to following equation to determine the values for koff and dissociation half-life T1/2 according to the following equations. [drawing 4] 1 where t is time and F is fluorescence from initial rate vo to steady state rate vs. [drawing 5] 2

[5] = PAMPA (parallel artificial membrane permeability assay); format: in vitro ADME; conditions: PAMPA
[6] = Kinetic aqueous solubility at pH 1.2/6.8; format: physicochemical; conditions: aqueous medium, kinetic from dmso stock
[7] = Plasma exposure of 2a in mice (oral and subcutaneous); format: in vivo; conditions: male, mouse, read-out: AUC0-24h
[8] = 6 min incubation of enzyme, read-out: Human enteropeptidase IC50(initial)
[9] = 120 min incubation of enzyme, read-out: Human enteropeptidase IC50(app)

T1 sequence (P98073 whole entry): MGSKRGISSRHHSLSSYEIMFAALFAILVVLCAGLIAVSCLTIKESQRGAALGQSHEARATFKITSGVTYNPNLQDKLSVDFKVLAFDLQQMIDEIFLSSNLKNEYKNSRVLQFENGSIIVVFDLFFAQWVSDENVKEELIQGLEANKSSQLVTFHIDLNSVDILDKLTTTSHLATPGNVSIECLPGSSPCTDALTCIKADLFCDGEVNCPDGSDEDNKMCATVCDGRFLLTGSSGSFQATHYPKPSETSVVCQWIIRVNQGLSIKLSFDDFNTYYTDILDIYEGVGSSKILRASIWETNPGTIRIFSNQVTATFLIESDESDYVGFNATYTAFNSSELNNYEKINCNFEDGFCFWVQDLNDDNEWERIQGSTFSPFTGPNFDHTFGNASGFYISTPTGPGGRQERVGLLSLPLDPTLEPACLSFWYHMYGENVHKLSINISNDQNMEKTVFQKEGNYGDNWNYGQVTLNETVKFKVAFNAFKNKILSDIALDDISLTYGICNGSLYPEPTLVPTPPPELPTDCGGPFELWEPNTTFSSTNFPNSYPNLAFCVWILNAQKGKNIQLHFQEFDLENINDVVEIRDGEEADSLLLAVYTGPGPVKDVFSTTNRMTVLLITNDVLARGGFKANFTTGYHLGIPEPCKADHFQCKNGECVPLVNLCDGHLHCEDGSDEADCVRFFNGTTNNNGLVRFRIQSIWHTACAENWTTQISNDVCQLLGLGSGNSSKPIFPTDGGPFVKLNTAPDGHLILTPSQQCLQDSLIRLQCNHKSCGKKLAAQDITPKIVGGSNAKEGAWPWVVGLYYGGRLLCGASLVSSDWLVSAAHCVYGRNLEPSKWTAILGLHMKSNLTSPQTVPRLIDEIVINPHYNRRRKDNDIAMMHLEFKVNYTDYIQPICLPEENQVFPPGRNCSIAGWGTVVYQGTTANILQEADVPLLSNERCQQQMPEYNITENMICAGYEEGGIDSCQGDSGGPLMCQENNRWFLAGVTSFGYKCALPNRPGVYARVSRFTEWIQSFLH
Chain of rat enteropeptidase (A0ABK0LTS6 829-1068): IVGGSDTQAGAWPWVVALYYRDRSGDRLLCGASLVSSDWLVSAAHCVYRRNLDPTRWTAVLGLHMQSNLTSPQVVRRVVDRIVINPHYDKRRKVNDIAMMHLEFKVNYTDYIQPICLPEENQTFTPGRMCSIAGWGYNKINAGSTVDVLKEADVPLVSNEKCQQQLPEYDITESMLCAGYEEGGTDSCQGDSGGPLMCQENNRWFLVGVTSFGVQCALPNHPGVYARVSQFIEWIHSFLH

CN(C)C(=O)COC(=O)Cc1ccc(OC(=O)c2ccc(NC(=N)N)cc2)cc1 [camostat]
body weight (DIO mice): induced body weight loss | enteropeptidase activity (enteropeptidase): inhibited enteropeptidase activity

N=C(N)Nc1ccc(C(=O)Oc2ccc3c(c2)OC[C@H]3CC(=O)N[C@@H](CC(=O)O)C(=O)O)cc1.O [(S)-5b, N-({(3S)-6-[(4-Carbamimidamidobenzoyl)oxy]-2,3-dihydro-1-benzofuran-3-yl}acetyl)-L-aspartic Acid Hydrate]
IC50 (human enteropeptidase [1]; [8]): 68 nM | IC50 (rat enteropeptidase): 4.6 nM | MDR1 (A to B) [2]: 0 nm/s | stability at pH 1.2 (% decomposed) [3]: 0.2 % decomposed | stability at pH 6.8 (% decomposed) [3]: 4.4 % decomposed | fecal protein output (fold of 2a) (High-Fat-Diet-Fed Mice; 10 mg/kg): 1.28 fold of 2a | PK in rats BA (Pharmacokinetics in rats; 10 mg/kg p.o. and 0.2 mg/kg i.v.): 0.4% | body weight change (DIO rats): body weight loss | food intake (DIO rats): reduction | fecal protein output (DIO rats): significant elevation | body weight (DIO mice): potent body weight reduction

Cl.N=C(N)Nc1ccc(C(=O)Oc2ccc(CC(=O)N[C@@H](CC(=O)O)C(=O)O)cc2)cc1 [2a, N-({4-[(4-Carbamimidamidobenzoyl)oxy]phenyl}acetyl)-L-aspartic Acid Hydrochloride]
fold enhancement in IC50(initial) relative to 1c (human enteropeptidase [1]; 6 min, glycine replaced with aspartic acid): five-fold | IC50 (human enteropeptidase [1]; [8]): 94 nM | IC50 (human enteropeptidase [1]; [9]): 5.9 nM | T1/2, half-time of dissociation from human enteropeptidase (human enteropeptidase [4]): >2 h | Papp ([5]; pH 7.4, read-out: PAMPA at pH 7.4): 0.2 ×10⁻⁶ cm/s | Papp ([5]; pH 5.0, read-out: PAMPA at pH 5.0): 0.1 ×10⁻⁶ cm/s | MDR1 (A to B) [2]: 0 nm/s | stability at pH 1.2 (% decomposed) [3]: 2.5 % decomposed | stability at pH 6.8 (% decomposed) [3]: 5.0 % decomposed | solubility kinetic ([6]; pH 1.2, simulated gastric fluid, read-out: Kinetic aqueous solubility at pH 1.2): 76 µg/mL | solubility kinetic ([6]; pH 6.8, aqueous buffer, read-out: Kinetic aqueous solubility at pH 6.8): > 97 µg/mL | fecal protein output (fold of 2a) (High-Fat-Diet-Fed Mice; 10 mg/kg): (1.00) fold of 2a | fecal protein content vs vehicle (High-Fat-Diet-Fed Mice; oral administration, 60 mg/kg): significant increase | fecal protein levels vs vehicle (High-Fat-Diet-Fed Mice; subcutaneous administration, 10 mg/kg): did not increase | AUC(0-t) at 24 h ([7]; oral, 60 mg/kg): 9820 ± 3740 ng·h/mL | AUC(0-t) at 24 h ([7]; sc, subcutaneous, 10 mg/kg): 16000 ± 2640 ng·h/mL

N=C(N)Nc1ccc(C(=O)Oc2cccc(C3=NO[C@](CC(=O)O)(C(=O)O)C3)c2)cc1 [6b, (5R)-3-{3-[(4-Carbamimidamidobenzoyl)oxy]phenyl}-5-(carboxymethyl)-4,5-dihydro-1,2-oxazole-5-carboxylic Acid]
IC50 (human enteropeptidase [1]; [8]): 20 nM | IC50 (human enteropeptidase [1]; [9]): 1.2 nM | IC50 (rat enteropeptidase; 120 min, supplement csv, unit inferred, read-out: rat enteropeptidase IC50 (120 min)): 1.5 nM | MDR1 (A to B) [2]: 0 nm/s | stability at pH 1.2 (% decomposed) [3]: 1.1 % decomposed | stability at pH 6.8 (% decomposed) [3]: 7.3 % decomposed | fecal protein output (fold of 2a) (High-Fat-Diet-Fed Mice; 10 mg/kg): 1.29 fold of 2a | PK in rats, plasma concentration (Pharmacokinetics in rats; 1 mg/kg p.o., below the lower limit of quantitation): < 1 ng/mL | body weight change (DIO rats): potent body weight loss in a dose-dependent manner | food intake (DIO rats): significant reduction | fecal protein output (DIO rats): significant increase | melting point: 199 °C (dec.)
